Assay results from patent US20240262814A1, “MODULATORS OF TREX1” (Constellation Pharmaceuticals, Inc., priority 2021, published 2024).

What was measured:
human TREX1 = biological target: T1, human TREX1 (Homo sapiens, UniProt Q9NSU2); test: hTREX1 Biochemical Assay (fluorescence, dsDNA substrate degradation); conditions: full length human TREX1, 4 h pre-incubation, 18 h reaction at 25° C.
T1 construct: N-terminally His-Tev tagged full length human TREX1; made in house; host or cells: E. coli
T1 sequence (Q9NSU2 1-314): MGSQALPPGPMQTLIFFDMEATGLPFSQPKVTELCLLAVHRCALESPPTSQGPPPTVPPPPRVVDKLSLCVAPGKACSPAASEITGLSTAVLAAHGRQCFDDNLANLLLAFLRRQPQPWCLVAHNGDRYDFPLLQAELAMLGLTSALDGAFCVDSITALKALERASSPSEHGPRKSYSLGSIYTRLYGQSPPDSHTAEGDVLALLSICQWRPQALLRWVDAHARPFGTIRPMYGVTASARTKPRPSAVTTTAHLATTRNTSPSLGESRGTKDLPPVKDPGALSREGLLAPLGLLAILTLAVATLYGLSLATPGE
Procedure: (§1) Degradation of the dsDNA liberates free fluorophore to produce a fluorescent signal. Specifically, 7.5 μL of N-terminally His-Tev tagged full length human TREX1 (expressed in E. coli and purified in house) in reaction buffer (50 mM Tris, 150 mM NaCl, 2 mM DTT, 0.1 mg/mL BSA, 0.01% (w/v) Tween-20, 5 mM MgCl2, pH 7.4) was added to a 384-well Black ProxiPlate Plus (PerkinElmer) which already contained compound (150 nL) at varying concentrations as a 10 point dose-response in DMSO. The plate was incubated at 25° C. for 4 hours. Reactions were initiated by adding 7.5 μL of dsDNA substrate (Strand A: 5′ TEX615/GCT AGG CAG 3′; Strand B: 5′ CTG CCT AGC/IAbRQSp (Integrated DNA Technologies)) in reaction buffer. Final concentrations were 4 pM TREX1, 60 nM dsDNA substrate in reaction buffer with 1.0% DMSO (v/v). After 18 hours at 25° C., reactions were quenched by the addition of 2 p L of 500 mM EDTA. Final concentrations in the quenched reaction were 3.5 pM TREX1, 53 nM DNA and 59 mM EDTA in a volume of 17 μL. After a 5-minute incubation at room temperature, plates were read in an EnVision plate reader (PerkinElmer) measuring fluorescence at 615 nm following excitation w/ 570 nm light. IC50 values were calculated by comparing the measured fluorescence at 615 nm relative to control wells pre-quenched w/ EDTA (100% inhibition) and no inhibitor (0% inhibition) controls as using non-linear least square four parameter fits and either Genedata or GraphPad Prism (GraphPad Software, Inc.).

mouse TREX1 = biological target: T2, mouse TREX1 (Mus musculus, UniProt Q91XB0); test: mTREX1 Biochemical Assay (fluorescence, dsDNA substrate degradation); conditions: full length mouse TREX1, 4 h pre-incubation, 18 h reaction at 25° C.
T2 construct: N-terminally His-Tev tagged full length mouse TREX1; made in house; host or cells: E. coli
T2 sequence (Q91XB0 1-314): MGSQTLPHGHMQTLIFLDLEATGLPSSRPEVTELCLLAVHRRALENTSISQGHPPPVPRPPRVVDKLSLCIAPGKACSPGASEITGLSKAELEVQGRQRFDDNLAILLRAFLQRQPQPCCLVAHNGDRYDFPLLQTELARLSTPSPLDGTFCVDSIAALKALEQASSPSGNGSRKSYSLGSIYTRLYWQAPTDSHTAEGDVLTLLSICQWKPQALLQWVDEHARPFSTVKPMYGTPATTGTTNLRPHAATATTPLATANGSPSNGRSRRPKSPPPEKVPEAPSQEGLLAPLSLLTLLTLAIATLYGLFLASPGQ
Procedure: as §1, with “Specifically, 7.5 p L of N-terminally” for “Specifically, 7.5 μL of N-terminally”, “full length mouse TREX1 (expressed” for “full length human TREX1 (expressed”, “concentrations were 6 pM TREX1,” for “concentrations were 4 pM TREX1,”, “reaction were 5.3 pM TREX1,” for “reaction were 3.5 pM TREX1,”, “of 17 p L. After a” for “of 17 μL. After a”

human TREX2 = biological target: T3, human TREX2 (Homo sapiens, UniProt Q9BQ50); test: hTREX2 Biochemical Assay (selectivity hTREX1 vs hTREX2); conditions: biochemical selectivity for hTREX1 vs hTREX2
T3 construct: human TREX2 (residues M44-A279, expressed in E. coli); made in house; host or cells: E. coli
T3 sequence (Q9BQ50 44-279 isoform Q9BQ50-1): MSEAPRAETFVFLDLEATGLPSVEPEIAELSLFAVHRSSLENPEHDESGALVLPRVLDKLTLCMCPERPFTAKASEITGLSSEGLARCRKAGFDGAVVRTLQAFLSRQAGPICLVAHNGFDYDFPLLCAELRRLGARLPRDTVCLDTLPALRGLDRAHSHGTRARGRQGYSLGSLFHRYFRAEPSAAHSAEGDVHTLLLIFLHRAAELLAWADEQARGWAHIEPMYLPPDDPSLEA
Procedure: Degradation of the dsDNA liberates free fluorophore to produce a fluorescent signal. Specifically, 7.5 p L of N-terminally His-Tev tagged human TREX2 (residues M44-A279, expressed in E. coli and purified in house) in reaction buffer (50 mM Tris, 150 mM NaCl, 2 mM DTT, 0.1 mg/mL BSA, 0.01% (w/v) Tween-20, 5 mM MgCl2, pH 7.4) was added to a 384-well Black ProxiPlate Plus (PerkinElmer) which already contained compound (150 nL) at varying concentrations as a 10 point dose-response in DMSO. The plate was incubated at 25° C. for 4 hours. Reactions were initiated by adding 7.5 μL of dsDNA substrate (Strand A: 5′ TEX615/GCT AGG CAG 3′; Strand B: 5′ CTG CCT AGC/IAbRQSp (IDT)) in reaction buffer. Final concentrations were 50 pM TREX2, 60 nM dsDNA substrate in reaction buffer with 1.0% DMSO (v/v). After 18 hours at 25° C., reactions were quenched by the addition of 2 μL of 500 mM EDTA. Final concentrations in the quenched reaction mixture were 44 pM TREX2, 53 nM DNA and 59 mM EDTA in a volume of 17 μL. After a 5-minute incubation at room temperature, plates were read in an EnVision plate reader (PerkinElmer) measuring fluorescence at 615 nm following excitation w/ 570 nm light. IC50 values were calculated by comparing the measured fluorescence at 615 nm relative to control wells pre-quenched w/ stop buffer (100% inhibition) and no inhibitor (0% inhibition) controls as using non-linear least square four parameter fits and either Genedata or GraphPad Prism (GraphPad Software, Inc.).

Row | Compound | IC50 (human TREX1) [nM] | IC50 (mouse TREX1) [nM] | hTREX1 vs hTREX2 selectivity (human TREX2)
1 | CC(c1nc(C(=O)Nc2cnoc2)c(O)c(=O)n1C)C(c1ccccc1)c1ccc(Cl)cc1C#N (single isomer, unassigned) [Example 9 Isomer 3] | > 100 | > 10 | 
2 | CC(c1nc(C(=O)Nc2cnoc2)c(O)c(=O)n1C)C(c1cc(F)cc(F)c1)c1ccccc1C#N (single isomer, unassigned) [Example 11 Isomer 1] | > 100 | > 10 | 
3 | CC(c1nc(C(=O)Nc2cnoc2)c(O)c(=O)n1C)C(c1ccc(F)c(F)c1)c1ccccc1C#N (single isomer, unassigned) [Example 12 Isomer 2] | > 100 | > 10 | 
4 | CC(c1nc(C(=O)Nc2cnoc2)c(O)c(=O)n1C)C(c1ccc(F)cc1F)c1ccccc1C#N (single isomer, unassigned) [Example 13 Isomer 4] | > 100 | > 10 | 
5 | C[C@H](c1nc(C(=O)Nc2cnoc2)c(O)c(=O)n1C)[C@H](c1ccccc1)c1ccccc1C(F)(F)F (single isomer, unassigned) [Example 14 Isomer 3, 5-Hydroxy-N-(isoxazol-4-yl)-1-methyl-6-oxo-2-(1-phenyl-1-(2-(trifluoromethyl)phenyl)propan-2-yl)-1,6-dihydropyrimidine-4-carboxamide] | > 100 | > 10 | 
6 | C[C@H](c1nc(C(=O)Nc2cnoc2)c(O)c(=O)n1C)[C@H](c1ccccc1)c1ccc(C(=O)N(C)C)cc1C#N (single isomer, unassigned) [Example 16 Isomer 2, 2-(1-(2-cyano-4-(dimethylcarbamoyl)phenyl)-1-phenylpropan-2-yl)-5-hydroxy-N-(isoxazol-4-yl)-1-methyl-6-oxo-1,6-dihydropyrimidine-4-carboxamide] | > 100 | > 10 | 
7 | CC(c1nc(C(=O)Nc2cnoc2)c(O)c(=O)n1C)C(c1ccccc1)c1cc(C(=O)N(C)C)ccc1C#N (single isomer, unassigned) [Example 17 Isomer 2] | > 100 | > 10 | 
8 | Cn1c([C@@H](CF)C(c2ccccc2)c2ccccc2)nc(C(=O)Nc2cnoc2)c(O)c1=O (single isomer, unassigned) [Example 18 Isomer 2, 2-(3-fluoro-1,1-diphenylpropan-2-yl)-5-hydroxy-N-(isoxazol-4-yl)-1-methyl-6-oxo-1,6-dihydropyrimidine-4-carboxamide] | > 100 | > 10 | 

The next lines start with the values.

Row | IC50 (human TREX1) [nM] | IC50 (mouse TREX1) [nM] | hTREX1 vs hTREX2 selectivity (human TREX2) | Compound
9 | 1 to 10 | > 10 | A (A = <25 fold selective for hTREX1) | C[C@H](c1nc(C(=O)Nc2cnoc2)c(O)c(=O)n1C)[C@H](c1ccccc1)c1ccccc1Cl (single isomer, unassigned) [Example 2 Isomer 1, 2-[1-(2-chlorophenyl)-1-phenylpropan-2-yl]-5-hydroxy-1-methyl-N-(1,2-oxazol-4-yl)-6-oxopyrimidine-4-carboxamide]
10 | 1 to 10 | > 10 |  | CC(c1nc(C(=O)Nc2cnoc2)c(O)c(=O)[nH]1)C(c1ccccc1C#N)c1ccccc1C#N (single isomer, unassigned) [Example 5 Isomer 2, 2-(1,1-bis(2-cyanophenyl)propan-2-yl)-5-hydroxy-N-(isoxazol-4-yl)-6-oxo-1,6-dihydropyrimidine-4-carboxamide]
11 | > 100 | > 10 |  | CC(c1nc(C(=O)Nc2cnoc2)c(O)c(=O)n1C)C(c1ccccc1)c1cc(F)ccc1C#N (single isomer, unassigned) [Example 6 Isomer 2]
12 | > 100 | > 10 |  | CC(c1nc(C(=O)Nc2cnoc2)c(O)c(=O)n1C)C(c1ccccc1)c1ccc(F)cc1C#N (single isomer, unassigned) [Example 7 Isomer 3]
13 | > 100 | > 10 |  | CC(c1nc(C(=O)Nc2cnoc2)c(O)c(=O)n1C)C(c1ccccc1)c1cc(Cl)ccc1C#N (single isomer, unassigned) [Example 8 Isomer 1]
14 | 1 to 10 | > 10 |  | C[C@H](c1nc(C(=O)Nc2cnoc2)c(O)c(=O)n1C)[C@H](c1ccccc1)c1ccc(C(=O)N(C)C)cc1C#N (single isomer, unassigned) [Example 16 Isomer 1, 2-(1-(2-cyano-4-(dimethylcarbamoyl)phenyl)-1-phenylpropan-2-yl)-5-hydroxy-N-(isoxazol-4-yl)-1-methyl-6-oxo-1,6-dihydropyrimidine-4-carboxamide]
15 | 10 to 100 | > 10 |  | CC(c1nc(C(=O)Nc2cnoc2)c(O)c(=O)n1C)C(c1ccccc1)c1cc(C(=O)N(C)C)ccc1C#N (single isomer, unassigned) [Example 17 Isomer 4]
